Some test systems named below: HCT-15; HL-60; IGROV-1; KM12; M14; MDA-MB-231; MDA-MB-435; MOLT-4; NCI-H226; NCI-H460; NCI-H522; OVCAR-3; PC-3; RXF 393; SK-MEL-2; SK-MEL-5; SNB-75; T47D; UO-31; CAKI-1.
Assay in all cases: growth of human tumour cells (NCI), 48 h

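Five concentrations, 48 hours, 96-well plates. GI50 marks 50% less growth.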 Activity calls are given as the source filed them. Cut-off read from the data, not from the text of the source: active = GI50 up to about 1.1 µM and inactive = higher.

Take `CSc1ccc(/C=C/c2ccnc3ccccc23)cc1`: the GI50 in the assay on HCT-15 was 11.5 µM; in the assay with HL-60 it was 3.97 µM (inactive); in the assay with IGROV-1 it was 16.4 µM (inactive); in the assay with KM12 it was 20.3 µM (inactive); in the assay on M14, 9.04 µM (inactive); in the assay with MDA-MB-231 it was 17 µM (inactive). Moreover, the GI50 in the assay with MDA-MB-435 is 3.69 µM (inactive); with MOLT-4 it was 12.2 µM (inactive); in the assay on NCI-H226 it was 14.5 µM (inactive); in the assay with NCI-H460, 12.2 µM (inactive); in the assay on NCI-H522, 12.5 µM (inactive); with OVCAR-3, 13.2 µM (inactive). For the same molecule, the GI50 in the assay on PC-3 is 6.67 µM (inactive); in the assay on RXF 393, 18.5 µM (inactive); in the assay with SK-MEL-2, 16.1 µM (inactive); in the assay on SK-MEL-5, 6.08 µM (inactive); in the assay with SNB-75, 20.4 µM (inactive); in the assay on T47D, 5.58 µM (inactive). Further, the GI50 in the assay on UO-31 is 11.8 µM (inactive).

`C[C@]12CC(c3ccccc3O1)C(C(=O)Nc1nc(C34CC5CC(CC(C5)C3)C4)cs1)C(=O)N2` (some centres undefined): the GI50 in the assay on CAKI-1 is > 100 µM (inactive); in the assay on HCT-15, more than 100 µM; in the assay on HL-60 it was > 100 µM (inactive); in the assay on IGROV-1, 75 µM (inactive); with KM12, > 100 µM (inactive); in the assay on M14, > 100 µM (inactive). For the same molecule, the GI50 with MDA-MB-231, in the assay with MDA-MB-435, in the assay with MOLT-4, with NCI-H226, in the assay on NCI-H460 and in the assay on OVCAR-3 was > 100 µM (inactive) throughout. Moreover, the GI50 in the assay on PC-3, in the assay on RXF 393, in the assay on SK-MEL-2, with SK-MEL-5, in the assay with SNB-75 and in the assay on T47D was > 100 µM (inactive) in each case.

In the case of `O=C1OC2(CCCCC2)C(Oc2ccc(Cl)cc2)=C1F`, the GI50 in the assay with CAKI-1 is 77.4 µM (inactive); in the assay on HL-60, 23.7 µM (inactive); in the assay with IGROV-1 it was 54.8 µM (inactive); in the assay on KM12, 40.1 µM (inactive); in the assay with M14, 33 µM (inactive); in the assay on MDA-MB-231 it was 77.3 µM (inactive). Besides, the GI50 was 35.6 µM (inactive) with MDA-MB-435; 20.3 µM (inactive) in the assay on MOLT-4; 41.1 µM (inactive) with NCI-H460; 12.7 µM (inactive) in the assay on NCI-H522; 40.3 µM (inactive) with OVCAR-3; 42.8 µM (inactive) in the assay on PC-3. Further, the GI50 in the assay with RXF 393 is 61.9 µM (inactive); in the assay on SK-MEL-2, 23.8 µM (inactive); with SK-MEL-5 it was 12.9 µM (inactive); in the assay on SNB-75, 89.1 µM (inactive); in the assay with T47D, 37.2 µM (inactive); in the assay with UO-31 it was 49.5 µM (inactive).

On to `N=C(N)N/N=C/c1cnn(C(=N)N)c1`, for which the GI50 in the assay on CAKI-1 is > 100 µM (inactive); in the assay with HCT-15 it was more than 100 µM; with HL-60 it was > 100 µM (inactive); in the assay with IGROV-1 it was > 100 µM (inactive); in the assay on KM12, 64.1 µM (inactive); in the assay on M14 it was > 100 µM (inactive). Also, the GI50 in the assay with MDA-MB-231, in the assay on MDA-MB-435, in the assay on MOLT-4, with NCI-H226, in the assay with NCI-H460 and in the assay on NCI-H522 was > 100 µM (inactive) throughout. Also, the GI50 with OVCAR-3 is > 100 µM (inactive); in the assay on PC-3 it was 31.4 µM (inactive); in the assay on RXF 393, > 100 µM (inactive); in the assay with SK-MEL-5 it was > 100 µM (inactive); in the assay with SNB-75, 95.3 µM (inactive); with T47D, > 100 µM (inactive). Moreover, the GI50 in the assay on UO-31 is > 100 µM (inactive).

Take `O=c1cc(-c2ccccc2)oc2c(-c3cc(Cl)cc4c(=O)cc(-c5ccccc5)oc34)cc(Cl)cc12`: the GI50 in the assay with HCT-15 is 29.5 µM; in the assay on HL-60, 50.1 µM (inactive); in the assay on IGROV-1 it was 22.5 µM (inactive); with KM12 it was 20 µM (inactive); with M14, 27.7 µM (inactive); in the assay on MDA-MB-231, 32.7 µM (inactive). The GI50 with MDA-MB-435 was 26.5 µM (inactive); in the assay on MOLT-4 it was 10.2 µM (inactive); in the assay with NCI-H226 it was 21.5 µM (inactive); in the assay with NCI-H460, 22.6 µM (inactive); with NCI-H522, 14.1 µM (inactive); in the assay with OVCAR-3 it was 24.3 µM (inactive). Also, the GI50 is 7.87 µM (inactive) in the assay on PC-3; 26.2 µM (inactive) with RXF 393; 35.7 µM (inactive) in the assay on SK-MEL-2; 15.5 µM (inactive) in the assay on SK-MEL-5; 4.49 µM (inactive) with SNB-75; 16.4 µM (inactive) in the assay with T47D. Besides, in the assay with UO-31, the GI50 was 16.8 µM (inactive).

Consider `CSc1ccsc1-c1sc(-c2cc(SC)c(-c3sc(-c4cc(SC)c(-c5sccc5SC)s4)cc3SC)s2)cc1SC`, for which the GI50 was 17.2 µM (inactive) in the assay on CAKI-1; more than 100 µM in the assay on HCT-15; 0.356 µM (active) in the assay with HL-60; > 100 µM (inactive) with IGROV-1; 65.2 µM (inactive) with KM12; > 100 µM (inactive) in the assay on M14. Besides, the GI50 in the assay with MDA-MB-231 was > 100 µM (inactive); with MDA-MB-435, 20.9 µM (inactive); in the assay on MOLT-4 it was 18 µM (inactive); in the assay with NCI-H460 it was > 100 µM (inactive); in the assay with NCI-H522, 18.3 µM (inactive); in the assay with OVCAR-3, 49.8 µM (inactive). Besides, the GI50 with PC-3 is 76.4 µM (inactive); in the assay on RXF 393 it was > 100 µM (inactive); in the assay with SK-MEL-2, > 100 µM (inactive); with SK-MEL-5, > 100 µM (inactive); with T47D, 28.2 µM (inactive).

As to `COc1ccc2oc(=O)c(-c3csc(-c4ccccc4)n3)cc2c1`, the GI50 with CAKI-1 was > 100 µM (inactive); in the assay with HCT-15, more than 100 µM; in the assay with HL-60 it was > 100 µM (inactive); in the assay with IGROV-1, 32.6 µM (inactive); in the assay on KM12, > 100 µM (inactive); in the assay on M14, > 100 µM (inactive). The GI50 is 43.4 µM (inactive) in the assay with MDA-MB-231; > 100 µM (inactive) in the assay with MDA-MB-435; > 100 µM (inactive) in the assay with MOLT-4; 39.2 µM (inactive) with NCI-H226; 54 µM (inactive) with NCI-H460; 89.5 µM (inactive) with PC-3. The GI50 was 24.9 µM (inactive) in the assay with RXF 393; > 100 µM (inactive) with SK-MEL-2; 45.2 µM (inactive) in the assay on SK-MEL-5; 37.3 µM (inactive) in the assay on SNB-75; > 100 µM (inactive) with T47D; 24 µM (inactive) in the assay on UO-31.

For the molecule `CC(=O)c1c(C)cc2cccc(OC3OC(CO)C(O)C(O)C3O)c2c1O.CC1OC(O)C(O)C(O)C1O` (centres undefined), the GI50 was > 100 µM (inactive) in the assay on CAKI-1; more than 100 µM in the assay with HCT-15; > 100 µM (inactive) in the assay with HL-60; > 100 µM (inactive) with IGROV-1; > 100 µM (inactive) in the assay on KM12; > 100 µM (inactive) in the assay with M14. In addition, the GI50 in the assay on MDA-MB-231, with MDA-MB-435, in the assay on MOLT-4, in the assay on NCI-H226, with NCI-H460 and in the assay on NCI-H522 was > 100 µM (inactive) each time. The GI50 in the assay with OVCAR-3, with PC-3, with RXF 393, in the assay on SK-MEL-2, with SK-MEL-5 and in the assay on SNB-75 was > 100 µM (inactive) each time. In the assay on T47D, the GI50 was > 100 µM (inactive).

With `Cc1ccc2c(ccc3c[n+]4ccccc4c(C)c32)c1.[O-][Cl+3]([O-])([O-])[O-]`, the GI50 with CAKI-1 was 0.297 µM (active); in the assay with HCT-15 it was more than 100 µM; in the assay on HL-60 it was 11.7 µM (inactive); with IGROV-1 it was 8.04 µM (inactive); in the assay with KM12, 0.39 µM (active); with M14, 5.46 µM (inactive). In addition, the GI50 is 6.61 µM (inactive) with MDA-MB-231; 4.73 µM (inactive) with MDA-MB-435; 7.91 µM (inactive) in the assay with MOLT-4; 1.28 µM (inactive) in the assay on NCI-H226; > 100 µM (inactive) in the assay with NCI-H460; 1.59 µM (inactive) in the assay with NCI-H522. In addition, the GI50 in the assay on OVCAR-3 is 1.12 µM (active); in the assay with PC-3 it was 0.904 µM (active); in the assay on RXF 393, 26.4 µM (inactive); with SK-MEL-2 it was 1.39 µM (inactive); in the assay on SK-MEL-5, 1.1 µM (active); with T47D, 2.47 µM (inactive). Further, the GI50 with UO-31 was 20.7 µM (inactive).

`N=C(N)Nc1ccc(CC(N)C(=O)O)cc1` (centres undefined): the GI50 with CAKI-1 was > 12.5 µM (inactive); with HCT-15, more than 12.5 µM; in the assay on HL-60 it was > 12.5 µM (inactive); in the assay on IGROV-1 it was > 12.5 µM (inactive); with KM12, > 12.5 µM (inactive); in the assay with M14, > 12.5 µM (inactive). The GI50 in the assay on MDA-MB-231, with MDA-MB-435, in the assay with MOLT-4, in the assay with NCI-H226, with NCI-H522 and in the assay on OVCAR-3 was > 12.5 µM (inactive) each time. Besides, the GI50 in the assay with PC-3, in the assay with RXF 393, in the assay with SK-MEL-2, in the assay on SK-MEL-5, with SNB-75 and with T47D was > 12.5 µM (inactive) in each case. In the assay with UO-31, the GI50 is > 12.5 µM (inactive).

Regarding `COc1cc2c(cc1OC)C1c3ccccc3CCCN1CC2` (centres undefined), the GI50 in the assay on CAKI-1 was > 100 µM (inactive); with HCT-15, more than 100 µM; in the assay with HL-60, 41.3 µM (inactive); in the assay on IGROV-1, > 100 µM (inactive); in the assay on KM12, > 100 µM (inactive); in the assay on M14, > 100 µM (inactive). The GI50 is > 100 µM (inactive) with MDA-MB-231; > 100 µM (inactive) in the assay on MDA-MB-435; > 100 µM (inactive) in the assay with MOLT-4; > 100 µM (inactive) in the assay with NCI-H226; > 10 µM (inactive) with NCI-H460; > 100 µM (inactive) with NCI-H522. Besides, the GI50 in the assay on OVCAR-3, with PC-3, in the assay with SK-MEL-2, in the assay on SK-MEL-5, in the assay with SNB-75 and with T47D was > 100 µM (inactive) throughout. The GI50 with UO-31 is 8.41 µM (inactive).
